# Measured values taken from PMC3765824, “Trough colistin plasma level is an independent risk factor for nephrotoxicity: a prospective observational cohort study” (BMC Infectious Diseases, 2013).
# Read-outs that look alike come from different tables or passages of the source. Bridge positions count the residues as written; N and C are the ends. Square brackets hold non-standard residues; d marks the D form. Peptide text beside a SMILES is read from it. * marks the point of attachment. X1 = CC[C@H](C)CCCCC(=O)*; Dab = NCC[C@H](N)C(=O)O
# Assays:
# [1] = Colistin plasma concentrations at steady state (HPLC); type: in vivo, patients; details: human; for Cmax: intravenous; for level at 72 h: iv
# Method: Evaluation of the colistin concentration in plasma was performed after 3 days of treatment, when the colistin concentrations had reached steady state. The samples were immediately centrifuged (3000 g for 10 minutes) and the plasma was stored at −80°C until analysis. Colistin plasma trough concentrations (Cmin) were measured just before the next dose. Maximum plasma concentrations (Cmax) were taken 30 minutes after the end of the CMS infusion (1 h after the start of infusion).
# Colistin concentrations in plasma were determined using a validated high-performance liquid chromatography (HPLC) method as described by Li et al., with minor modifications. After protein precipitation, the samples were centrifuged (14000 g, 5 min) and the supernatant transferred to solid phase extraction (SPE) C18 cartridges (Sep-Pak, Waters, Milford, MA, USA), in which derivation with 9-fluorenylmethyl chloroformate (FMOC-Cl) was performed. Elution of the fluorescence derivatives was performed with acetone mixed with acetonitrile and boric acid. Finally, 20 μl of the mixture was injected into the HPLC. The HPLC system was made up of Waters equipment that included a Waters 2475 multi-λ Fluorescence Detector, a Waters 1525 binary pump with column heater, a Waters degasser, and a Waters 717 autoinjector sampler. The stationary phase was a Waters SunFire column C18, 4.6 × […], 5 μm. The mobile phase was a mixture of acetonitrile, tetrahydrofuran and water delivered at an isocratic flux of 1 mL/min. The chromatogram run time was 20 minutes and the detector setting was excitation wavelength 260 nm and emission wavelength 315 nm. The concentrations of colistin were calculated by multiplying the obtained colistin sulfate plasma concentrations by 1163/1403 (1163 being the average molecular weight of colistin A and B, which are the greater part of the products, and 1403 the average molecular weight of colistin sulfate). The colistin plasma concentration in each patient was calculated as the sum of colistin A and B, the two main components. Calibration curves were linear in the range 0.1-8 mcg/ml and the accuracy quality control samples varied from 90–110 % of the nominal concentration for intraday and interday analysis, with a precision (CV%) of 10% or less. The limit of quantification was 0.1 mcg/ml and the limit of detection was 0.05 mcg/mL.
# [2] = system: infections caused by MDR-GNB; test: Clinical response to CMS treatment; type: in vivo, patients
# Method: (§1) This prospective observational study was performed at a 400-bed acute-care university hospital in Barcelona, Spain. A pharmacy-generated alarm system was used to identify patients on CMS treatment for therapy of infections caused by MDR-GNB. From January 2010 to June 2011, patients (>18 years) were included if they had received colistin methanesulfonate sodium (CMS) for at least 4 days. Patients were excluded if they were receiving renal replacement therapy prior to the initiation of CMS.
# Data on demographic characteristics including age, gender, body weight, size, and body mass index were collected. Data on the indication for CMS, the administration schedule, the daily CMS dose recorded as millions of IU, the total cumulative CMS dose (millions of IU), and the duration of treatment were collected. Other data recorded included the presence of CKD at baseline, the Charlson score, the severity of disease at the time of the first CMS dose stratified according to the Acute Physiology and the Chronic Health Evaluation (APACHE) II [16]. The concomitant use of aminoglycosides, vancomycin, angiotensin II receptor blockers, angiotensin-converting enzyme inhibitors, loop diuretics, intravenous dye, amphotericin B, non-steroidal anti-inflammatory drugs (NSAIDs), the need for vasopressor drugs, and discontinuation of CMS treatment because of AKI were also recorded. The patient’s clinical status at the beginning of CMS treatment was defined as infection, severe sepsis and shock, according to the standard definition. Clinical response was defined as the resolution of signs, symptoms, and laboratory parameters that defined infection for each patient. The 30-day all-cause mortality was also recorded.
# [3] = system: patients receiving intravenous colistin methanesulfonate sodium (CMS); test: 30-day all-cause mortality; type: in vivo; details: 102 patients on iv CMS
# From the text: Data on demographic characteristics including age, gender, body weight, size, and body mass index were collected. Data on the indication for CMS, the administration schedule, the daily CMS dose recorded as millions of IU, the total cumulative CMS dose (millions of IU), and the duration of treatment were collected. Other data recorded included the presence of CKD at baseline, the Charlson score, the severity of disease at the time of the first CMS dose stratified according to the Acute Physiology and the Chronic Health Evaluation (APACHE) II [16]. The concomitant use of aminoglycosides, vancomycin, angiotensin II receptor blockers, angiotensin-converting enzyme inhibitors, loop diuretics, intravenous dye, amphotericin B, non-steroidal anti-inflammatory drugs (NSAIDs), the need for vasopressor drugs, and discontinuation of CMS treatment because of AKI were also recorded. The patient’s clinical status at the beginning of CMS treatment was defined as infection, severe sepsis and shock, according to the standard definition. Clinical response was defined as the resolution of signs, symptoms, and laboratory parameters that defined infection for each patient. The 30-day all-cause mortality was also recorded. […]
# [4] = system: patients receiving intravenous colistin methanesulfonate sodium (CMS); test: Colistin-associated nephrotoxicity: AKI by RIFLE criteria during CMS treatment; type: in vivo; details: for N° (%) of patients fulfilling criterion: ESKD (E) / N° (%) of patients fulfilling criterion: Failure (F) / N° (%) of patients fulfilling criterion: Injury (I) / N° (%) of patients fulfilling criterion: Loss (L) / N° (%) of patients fulfilling criterion: No injury / N° (%) of patients fulfilling criterion: Risk (R): RIFLE
# Method: as §1
# CMS for injection was used and dosed in millions of international units (IU) throughout the study. The drug was administered intravenously in 100 mL normal saline over 30 minutes in the commercially available colistimethate formulation for injection (GES Genéricos Españoles ®), with each vial containing 80 mg CMS (equivalent to 1 million international units of CMS). Dose selection was based on the individual criteria of the responsible clinicians, who were not aware that this study was being performed. Although there were some dose adjustments based on baseline renal function, common colistin doses ranged from 1 to 3 million international units (IU) every 8 hours (3–9 million IU daily). Dose adjustments were made according to the package insert’s recommended dosing as follows: GFR ≥ 76 mL/min/1.73 m^2, 4–6 million IU daily in three doses; GFR 40 to 75 mL/min/1.73 m^2, 2–3 million IU daily in 2 doses; GFR 25 to 40 mL/min/1.73 m^2, 1.5-2 million IU daily divided in 1 or 2 doses and; GFR < 25 mL/min/1.73 m^2 , 0.6-1 million of IU daily every 36 hours.
# Serum creatinine level and estimated glomerular filtration rate (GFR) were recorded at baseline, on day 7 and at the end of treatment (EOT). We chose these set points because blood tests are done routinely for all inpatients at least once a week and at the end of treatment. The abbreviated Modification of Diet in the Renal Disease Equation (MDRD-4) was used to calculate GFR. Chronic kidney disease (CKD) at baseline was considered if GFR was < 60 mL/min/1.73 m^2 for ≥ 3 months. Patients with increased creatinine (> 1.4 mg/dL) or GFR < 90 mL/min/1.73 m^2 at admission and no prior data regarding chronicity were considered as having acute renal failure due to any cause. The RIFLE criteria (risk, injury, failure, loss, and end-stage kidney disease), estimated with exclusion of the urinary output criterion, were used for detection and stratification of AKI [14] (Table 1). AKI during CMS treatment was defined as a 1.5-fold or more increase in serum creatinine and/or a decrease in the GFR of 25% or more. These criteria needed to be fulfilled for at least 2 consecutive determinations 24 hours apart, after ≥ 4 days of CMS therapy. Patients who developed AKI were followed up for a period of 30 days after the end of CMS treatment to evaluate the reversibility of this toxicity. Patients who died or had no data during this period were excluded from this analysis.
# Multivariate analysis of risk factors for colistin nephrotoxicity was constructed by using logistic regression. Univariate analyses were performed separately for each of the risk factor variables to ascertain the odds ratio and 95% confidence interval (CI). All clinically important covariates and those with a P value < 0.2 in the univariate analyses were included in the multivariate analysis. Since Cmax and Cmin values were almost equal, only one of these variables was included in the model.
# The ROC curve was used to identify a categorical breakpoint for Cmin that would better identify patients who develop acute kidney injury (AKI) on day 7 and at the end of treatment. For all analyses, a two-sided P value < 0.05 was considered to be statistically significant. The Statistical Package for the Social Sciences (SPSS, version 15.0) was used for statistical analysis.
# [5] = % of the 26 patients with nephrotoxicity at day 7
# [6] = End of treatment, multivariate logistic regression
molecule,measurement,setting,value
CC[C@H](C)CCCCC(=O)N[C@@H](CCN)C(=O)N[C@H](C(=O)N[C@@H](CCN)C(=O)N[C@H]1CCNC(=O)[C@H]([C@@H](C)O)NC(=O)[C@H](CCN)NC(=O)[C@H](CCN)NC(=O)[C@H](CC(C)C)NC(=O)[C@@H](CC(C)C)NC(=O)[C@H](CCN)NC1=O)[C@@H](C)O [colistin] (X1-[Dab]T[Dab][Dab][Dab][dL]L[Dab][Dab]T; lactam 4-C),Cmax,"[1]; 1 million IU/8 h, CMS 1 million IU/8 h (n = 28), steady state, 30 min after infusion, median (interquartile range), read-out: Cmax",650 ng/mL
same,Cmax,"[1]; 2 million IU/8 h, CMS 2 million IU/8 h (n = 42), steady state, 30 min after infusion, median (interquartile range), read-out: Cmax",1130 ng/mL
same,Cmax,"[1]; 3 million IU/8 h, CMS 3 million IU/8 h (n = 16), steady state, 30 min after infusion, median (interquartile range), read-out: Cmax",1840 ng/mL
same,Cmax,"[1]; CMS other doses (n = 16), steady state, 30 min after infusion, median (interquartile range), read-out: Cmax",1500 ng/mL
same,Cmax,"[1]; first value of pair, taken as patients without acute renal failure at baseline, read-out: Peak colistin plasma level",1000 ng/mL
same,Cmax,"[1]; second value of pair, taken as patients with acute renal failure at baseline, read-out: Peak colistin plasma level",1820 ng/mL
same,level at 72 h,"[1]; 1 million IU/8 h, CMS 1 million IU/8 h (n = 28), steady state trough, median (interquartile range), read-out: Cmin",710 ng/mL
same,level at 72 h,"[1]; 2 million IU/8 h, CMS 2 million IU/8 h (n = 42), steady state trough, median (interquartile range), read-out: Cmin",1140 ng/mL
same,level at 72 h,"[1]; 3 million IU/8 h, CMS 3 million IU/8 h (n = 16), steady state trough, median (interquartile range), read-out: Cmin",1840 ng/mL
same,level at 72 h,"[1]; CMS other doses (n = 16), steady state trough, median (interquartile range), read-out: Cmin",1500 ng/mL
same,level at 72 h,"[1]; first value of pair, taken as patients without acute renal failure at baseline, read-out: Trough colistin plasma level",860 ng/mL
same,level at 72 h,"[1]; second value of pair, taken as patients with acute renal failure at baseline, read-out: Trough colistin plasma level",1790 ng/mL
colistin methanesulfonate sodium [CMS],Clinical response,[2]; CMS 1 million IU/8 h (n = 28),25 (89.3) n (%)
same,Clinical response,[2]; CMS 2 million IU/8 h (n = 42),32 (76.2) n (%)
same,Clinical response,[2]; CMS 3 million IU/8 h (n = 16),11 (68.8) n (%)
same,Clinical response,[2]; CMS other doses (n = 16),11 (68.8) n (%)
same,Clinical response,[2]; all included patients n=102,79 (77.5) n (%)
same,30-day all-cause mortality rate,[3],32.4%
same,Patients who developed AKI needing renal replacement therapy,[4]; 53 patients with AKI,None
same,Nephrotoxicity at day 7: F (Failure),[4]; [5],2 (7.6) n (%)
same,Nephrotoxicity at day 7: I (Injury),[4]; [5],8 (30.7) n (%)
same,Nephrotoxicity at day 7: R (Risk),[4]; [5],16 (61.5) n (%)
same,Nephrotoxicity at the end of treatment: I (Injury),[4]; % of the 50 patients with nephrotoxicity at EOT,23(46) n (%)
same,AKI at EOT,[4]; CMS 1 million IU/8 h (n = 28),14 (50) n (%)
same,AKI at day 7,[4]; CMS 1 million IU/8 h (n = 28),5 (17.9) n (%)
same,AKI at EOT,[4]; CMS 2 million IU/8 h (n = 42),21 (50) n (%)
same,AKI at day 7,[4]; CMS 2 million IU/8 h (n = 42),11 (26.2) n (%)
same,AKI at EOT,[4]; CMS 3 million IU/8 h (n = 16),9 (56.3) n (%)
same,AKI at day 7,[4]; CMS 3 million IU/8 h (n = 16),7 (43.8) n (%)
same,AKI at EOT,[4]; CMS other doses (n = 16),6 (37.5) n (%)
same,AKI at day 7,[4]; CMS other doses (n = 16),3 (18.8) n (%)
same,N° (%) of patients fulfilling criterion: ESKD (E),[4]; Day 7 (n = 102),0 (0) N° (%)
same,N° (%) of patients fulfilling criterion: Failure (F),[4]; Day 7 (n = 102),2 (2) N° (%)
same,N° (%) of patients fulfilling criterion: Injury (I),[4]; Day 7 (n = 102),8 (7.8) N° (%)
same,N° (%) of patients fulfilling criterion: Loss (L),[4]; Day 7 (n = 102),0 (0) N° (%)
same,N° (%) of patients fulfilling criterion: No injury,[4]; Day 7 (n = 102),76 (74.5) N° (%)
same,N° (%) of patients fulfilling criterion: Risk (R),[4]; Day 7 (n = 102),16 (15.7) N° (%)
same,Odds ratio (95% CI) of CMS cumulative dose at day 7 for nephrotoxicity,"[4]; Day 7, multivariate logistic regression",0.99 (0.94-1.04)
same,N° (%) of patients fulfilling criterion: ESKD (E),[4]; EOT (n = 102),0 (0) N° (%)
same,N° (%) of patients fulfilling criterion: Failure (F),[4]; EOT (n = 102),13 (12.7) N° (%)
same,N° (%) of patients fulfilling criterion: Injury (I),[4]; EOT (n = 102),23 (22.5) N° (%)
same,N° (%) of patients fulfilling criterion: Loss (L),[4]; EOT (n = 102),0 (0) N° (%)
same,N° (%) of patients fulfilling criterion: No injury,[4]; EOT (n = 102),52 (51) N° (%)
same,N° (%) of patients fulfilling criterion: Risk (R),[4]; EOT (n = 102),14 (13.7) N° (%)
same,Odds ratio (95% CI) of CMS cumulative dose for nephrotoxicity,[4]; [6],0.99 (0.98-1)
same,Odds ratio (95% CI) of CMS duration treatment for nephrotoxicity,[4]; [6],1.03 (0.98-1.08)
same,Patients with nephrotoxicity at day 7,"[4]; n=102, RIFLE criteria",26 (25.5) n (%)
same,Patients with nephrotoxicity at the end of treatment,"[4]; n=102, RIFLE criteria",50 (49) n (%)
